According to patent US20240317706A1, “COMPOUNDS THAT MEDIATE PROTEIN DEGRADATION AND METHODS OF USE THEREOF” (Monte Rosa Therapeutics, Inc., priority 2021, published 2024):
pKi: −log10 of the molar value.

Tests used:
CDK2 = target: T1, CDK2 (Homo sapiens, UniProt P24941); assay: HiBiT assay (CDK2 degradation); type: cell-based; settings: HEK293 clonal line with CRISPR KI HiBiT tag on CDK2, 24 hours, HiBiT Lysis Reagent
T1 construct: HEK293 clonal lines with CRISPR KI HiBiT tag on CDK2 proteins; host or cells: HEK293 clonal line, CRISPR knock-in HiBiT-CDK2, stably expressing LgBiT
Method: HEK293 clonal lines with CRISPR KI HiBiT tag on CDK2 proteins and stably expressing LgBiT protein were obtained from Promega (Madison, WI). Cells were plated at 5000 cells per well using Multiflo (BioTek) in 384-well white solid bottom plates (Corning, 3570BC) in 25 ul volume in DMEM media (DMEM, high glucose, HEPES, no phenol red (ThermoFisher Scientific, 21063029)) containing 10% FBS (Corning, 35-075-CV), 1% Penicillin/Streptomycin (ThermoFisher Scientific, 15140-122). Cells were incubated for 16 hours at 37° C., 5% CO2. 75 nL of a compound at 30 μM were dosed into the plate using an Echo® 650 liquid handler (Labcyte). Cells were incubated at 37° C., 5% CO2 for 24 hours. 5 ul of HiBiT Lysis Reagent (Promega, N3030) is added using Combi Multidrop (ThermoFisher Scientific), plates are incubated for 15′ at 37° C., 5% CO2 and then signal was read on a Pherastar FSX using “LUM plus” optic module.
Analysis was performed in Scinamic (Scinamic, Cambridge, MA). Luminescence response (R) was calculated by the formula: response=100*(S−N)/(P−N) where S is the signal of the well, N and P the mean negative and positive control values respectively of the same plate. The luminescence response was then fitted in Scinamic using a 3-parameter agonist logistic fit (hillslope=1, EC50>0, top/bottom unconstrained).

CRBN-DDB1 = CRBN-DDB1 (Homo sapiens, UniProt Q96SW2); assay: Compound binding to CRBN by HTRF assay; settings: CRBN-DDB1 2.5 nM, Cy5-Thalidomide 100 nM, 30 min; Ki from geometric mean IC50 by Cheng-Prustoff transformation
Summary of the method: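 HTRF displacement of Cy5-thalidomide probe (100 nM) from His-CRBN-DDB1 (2.5 nM) with anti-His terbium cryptate, in HEPES/NaCl/TCEP/EDTA/Tween20 buffer. 10-point 1:3 compound series, 30 min at ambient temperature; signal normalised to DMSO and lenalidomide controls, IC50 fitted and Ki derived by Cheng-Prusoff.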

CRBN-DDB1, sequence (Q96SW2 whole entry): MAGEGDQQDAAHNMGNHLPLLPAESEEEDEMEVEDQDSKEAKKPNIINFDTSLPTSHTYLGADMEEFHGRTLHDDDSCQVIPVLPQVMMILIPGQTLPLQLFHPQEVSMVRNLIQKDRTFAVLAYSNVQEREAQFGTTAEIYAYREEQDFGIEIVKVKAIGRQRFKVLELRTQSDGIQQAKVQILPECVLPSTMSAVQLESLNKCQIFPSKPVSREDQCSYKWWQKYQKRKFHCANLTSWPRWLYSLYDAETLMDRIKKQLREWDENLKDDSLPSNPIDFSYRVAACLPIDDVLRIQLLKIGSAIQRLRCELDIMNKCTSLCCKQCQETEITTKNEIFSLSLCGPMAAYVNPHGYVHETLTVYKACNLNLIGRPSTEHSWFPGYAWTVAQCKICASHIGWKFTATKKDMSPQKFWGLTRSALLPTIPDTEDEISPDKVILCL
CRBN-DDB1, sequence (Q16531 whole entry partner): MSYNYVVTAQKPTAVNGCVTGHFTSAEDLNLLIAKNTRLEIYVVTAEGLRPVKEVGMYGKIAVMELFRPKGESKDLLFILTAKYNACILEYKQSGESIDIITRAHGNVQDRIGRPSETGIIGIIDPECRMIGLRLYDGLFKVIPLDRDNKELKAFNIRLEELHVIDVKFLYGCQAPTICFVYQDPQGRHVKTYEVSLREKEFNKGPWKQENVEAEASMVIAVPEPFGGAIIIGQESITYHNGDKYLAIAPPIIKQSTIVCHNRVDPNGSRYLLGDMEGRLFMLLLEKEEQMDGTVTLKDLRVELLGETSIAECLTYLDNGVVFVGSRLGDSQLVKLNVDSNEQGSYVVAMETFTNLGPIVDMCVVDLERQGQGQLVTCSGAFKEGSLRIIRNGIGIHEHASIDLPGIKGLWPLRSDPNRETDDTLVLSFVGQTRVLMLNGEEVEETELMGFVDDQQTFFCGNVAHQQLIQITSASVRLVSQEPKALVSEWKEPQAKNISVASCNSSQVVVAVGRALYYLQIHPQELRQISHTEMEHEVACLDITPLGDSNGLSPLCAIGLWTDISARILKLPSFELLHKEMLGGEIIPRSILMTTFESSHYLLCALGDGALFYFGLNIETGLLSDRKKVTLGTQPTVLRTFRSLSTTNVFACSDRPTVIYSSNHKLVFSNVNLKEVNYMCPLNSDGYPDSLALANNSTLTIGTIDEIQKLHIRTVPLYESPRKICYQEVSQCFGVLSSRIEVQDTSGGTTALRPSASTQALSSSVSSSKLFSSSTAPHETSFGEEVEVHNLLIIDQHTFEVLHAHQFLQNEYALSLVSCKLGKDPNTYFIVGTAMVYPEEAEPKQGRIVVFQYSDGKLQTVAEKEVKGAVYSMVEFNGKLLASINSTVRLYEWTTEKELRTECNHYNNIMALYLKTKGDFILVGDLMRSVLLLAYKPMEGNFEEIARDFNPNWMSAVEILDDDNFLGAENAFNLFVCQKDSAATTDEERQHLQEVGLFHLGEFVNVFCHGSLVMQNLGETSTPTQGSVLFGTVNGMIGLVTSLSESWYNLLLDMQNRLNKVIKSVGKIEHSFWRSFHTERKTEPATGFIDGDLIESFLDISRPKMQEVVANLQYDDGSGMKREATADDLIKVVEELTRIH

| SMILES | Dmax (CDK2) [%] | pKi (CRBN-DDB1) |
| --- | --- | --- |
| CC1(C)CCC(OC(=O)NCc2ccc3c(c2)CN(C2CCC(=O)NC2=O)C3=O)CC1 (stereo not shown) [Compound 15, 4,4-dimethylcyclohexyl N-{[2-(2,6-dioxopiperidin-3-yl)-1-oxo-2,3-dihydro-1H-isoindol-5-yl]methyl}carbamate] | 50 to 80 | ≥ 7.00 |
| CC1(COC(=O)NCc2ccc3c(c2)C(=O)N(C2CCC(=O)NC2=O)C3)COC1 (stereo not shown) [Compound 16, (3-methyloxetan-3-yl)methyl N-{[2-(2,6-dioxopiperidin-3-yl)-3-oxo-2,3-dihydro-1H-isoindol-5-yl]methyl}carbamate] | ≤ 10 | 6.00 to 7.00 |
| O=C1CCC(N2Cc3ccc(CNC(=O)OC4CCc5ccccc5C4)cc3C2=O)C(=O)N1 (stereo not shown) [Compound 17, 1,2,3,4-tetrahydronaphthalen-2-yl N-{[2-(2,6-dioxopiperidin-3-yl)-3-oxo-2,3-dihydro-1H-isoindol-5-yl]methyl}carbamate] | 10 to 50 | 6.00 to 7.00 |
| O=C1CCC(N2Cc3ccc(CNC(=O)OCC4CCc5ccccc54)cc3C2=O)C(=O)N1 (stereo not shown) [Compound 18, (2,3-dihydro-1H-inden-1-yl)methyl N-{[2-(2,6-dioxopiperidin-3-yl)-3-oxo-2,3-dihydro-1H-isoindol-5-yl]methyl}carbamate] | 10 to 50 | 6.00 to 7.00 |
| O=C1CCC(N2Cc3ccc(CNC(=O)OCC4OCCc5ccccc54)cc3C2=O)C(=O)N1 (stereo not shown) [Compound 19, (3,4-dihydro-1H-2-benzopyran-1-yl)methyl N-{[2-(2,6-dioxopiperidin-3-yl)-3-oxo-2,3-dihydro-1H-isoindol-5-yl]methyl}carbamate] | ≤ 10 | ≥ 7.00 |
| CC(C)C1CC(COC(=O)NCc2ccc3c(c2)C(=O)N(C2CCC(=O)NC2=O)C3)C1 (stereo not shown) [Compound 20, [3-(propan-2-yl)cyclobutyl]methyl N-{[2-(2,6-dioxopiperidin-3-yl)-3-oxo-2,3-dihydro-1H-isoindol-5-yl]methyl}carbamate] | 10 to 50 | ≥ 7.00 |
| O=C1CCC(N2Cc3ccc(CNC(=O)OCCOC4CC4)cc3C2=O)C(=O)N1 (stereo not shown) [Compound 21, 2-cyclopropoxyethyl N-{[2-(2,6-dioxopiperidin-3-yl)-3-oxo-2,3-dihydro-1H-isoindol-5-yl]methyl}carbamate] | ≤ 10 | 6.00 to 7.00 |
| CC1(COC(=O)NCc2ccc3c(c2)C(=O)N(C2CCC(=O)NC2=O)C3)CCCO1 (stereo not shown) [Compound 22, (2-methyloxolan-2-yl)methyl N-{[2-(2,6-dioxopiperidin-3-yl)-3-oxo-2,3-dihydro-1H-isoindol-5-yl]methyl}carbamate] | ≤ 10 | 6.00 to 7.00 |
| CO[C@H]1C[C@@H](OC(=O)NCc2ccc3c(c2)C(=O)N(C2CCC(=O)NC2=O)C3)C1 (stereo partly shown) [Compound 23, (1s,3s)-3-methoxycyclobutyl N-{[2-(2,6-dioxopiperidin-3-yl)-3-oxo-2,3-dihydro-1H-isoindol-5-yl]methyl}carbamate] | ≤ 10 | 6.00 to 7.00 |
| CC1(C)CCC1OC(=O)NCc1ccc2c(c1)C(=O)N(C1CCC(=O)NC1=O)C2 (stereo not shown) [Compound 24, 2,2-dimethylcyclobutyl N-{[2-(2,6-dioxopiperidin-3-yl)-3-oxo-2,3-dihydro-1H-isoindol-5-yl]methyl}carbamate] | 10 to 50 | 6.00 to 7.00 |
| C[C@H]1C[C@@H]1COC(=O)NCc1ccc2c(c1)C(=O)N(C1CCC(=O)NC1=O)C2 (stereo partly drawn) [Compound 25, [(1S,2S)-2-methylcyclopropyl]methyl N-{[2-(2,6-dioxopiperidin-3-yl)-3-oxo-2,3-dihydro-1H-isoindol-5-yl]methyl}carbamate] | ≤ 10 | 6.00 to 7.00 |
| C[C@H](OC(=O)NCc1ccc2c(c1)C(=O)N(C1CCC(=O)NC1=O)C2)C1CC1 (stereo partly drawn) [Compound 28, (1S)-1-cyclopropylethyl N-{[2-(2,6-dioxopiperidin-3-yl)-3-oxo-2,3-dihydro-1H-isoindol-5-yl]methyl}carbamate] | 10 to 50 | 6.00 to 7.00 |
| O=C1CCC(N2Cc3ccc(CNC(=O)OC[C@H]4CCCO4)cc3C2=O)C(=O)N1 (stereo partly drawn) [Compound 29, [(2R)-oxolan-2-yl]methyl N-{[2-(2,6-dioxopiperidin-3-yl)-3-oxo-2,3-dihydro-1H-isoindol-5-yl]methyl}carbamate] | ≤ 10 | ≥ 7.00 |
| C[C@H]1COC[C@@H]1OC(=O)NCc1ccc2c(c1)C(=O)N(C1CCC(=O)NC1=O)C2 (stereo partly drawn) [Compound 30, (3R,4S)-4-methyloxolan-3-yl N-{[2-(2,6-dioxopiperidin-3-yl)-3-oxo-2,3-dihydro-1H-isoindol-5-yl]methyl}carbamate] | ≤ 10 | 6.00 to 7.00 |
| CC1(C)CC(OC(=O)NCc2ccc3c(c2)C(=O)N(C2CCC(=O)NC2=O)C3)C1 (stereo not shown) [Compound 31, 3,3-dimethylcyclobutyl N-{[2-(2,6-dioxopiperidin-3-yl)-3-oxo-2,3-dihydro-1H-isoindol-5-yl]methyl}carbamate] | 10 to 50 | 6.00 to 7.00 |
| C[C@H]1CCC[C@@H]1OC(=O)NCc1ccc2c(c1)C(=O)N(C1CCC(=O)NC1=O)C2 (stereo partly drawn) [Compound 32, (1S,2S)-2-methylcyclopentyl N-{[2-(2,6-dioxopiperidin-3-yl)-3-oxo-2,3-dihydro-1H-isoindol-5-yl]methyl}carbamate] | 10 to 50 | 6.00 to 7.00 |
| O=C1CCC(N2Cc3ccc(CNC(=O)OCCOC4COC4)cc3C2=O)C(=O)N1 (stereo not shown) [Compound 33, 2-(oxetan-3-yloxy)ethyl N-{[2-(2,6-dioxopiperidin-3-yl)-3-oxo-2,3-dihydro-1H-isoindol-5-yl]methyl}carbamate] | 10 to 50 | 6.00 to 7.00 |
| CN1CCC(COC(=O)NCc2ccc3c(c2)C(=O)N(C2CCC(=O)NC2=O)C3)CC1 (stereo not shown) [Compound 34, (1-methylpiperidin-4-yl)methyl N-{[2-(2,6-dioxopiperidin-3-yl)-3-oxo-2,3-dihydro-1H-isoindol-5-yl]methyl}carbamate] | ≤ 10 | 6.00 to 7.00 |
| O=C1CCC(N2Cc3ccc(CNC(=O)OC4Cc5ccccc54)cc3C2=O)C(=O)N1 (stereo not shown) [Compound 35, bicyclo[4.2.0]octa-1,3,5-trien-7-yl N-{[2-(2,6-dioxopiperidin-3-yl)-3-oxo-2,3-dihydro-1H-isoindol-5-yl]methyl}carbamate] | 10 to 50 | ≥ 7.00 |
| CN1C(=O)CCC1COC(=O)NCc1ccc2c(c1)C(=O)N(C1CCC(=O)NC1=O)C2 (stereo not shown) [Compound 36, (1-methyl-5-oxopyrrolidin-2-yl)methyl N-{[2-(2,6-dioxopiperidin-3-yl)-3-oxo-2,3-dihydro-1H-isoindol-5-yl]methyl}carbamate] | ≤ 10 | ≥ 7.00 |
| O=C1CCC(N2Cc3ccc(CNC(=O)OCC4(c5ccccc5)CC(F)(F)C4)cc3C2=O)C(=O)N1 (stereo not shown) [Compound 38, (3,3-difluoro-1-phenylcyclobutyl)methyl N-{[2-(2,6-dioxopiperidin-3-yl)-3-oxo-2,3-dihydro-1H-isoindol-5-yl]methyl}carbamate] | 10 to 50 | ≥ 7.00 |
| CN1CCC(COC(=O)NCc2ccc3c(c2)C(=O)N(C2CCC(=O)NC2=O)C3)C1 (stereo not shown) [Compound 39, (1-methylpyrrolidin-3-yl)methyl N-{[2-(2,6-dioxopiperidin-3-yl)-3-oxo-2,3-dihydro-1H-isoindol-5-yl]methyl}carbamate] | ≤ 10 | 6.00 to 7.00 |
| CN1CCC(OC(=O)NCc2ccc3c(c2)C(=O)N(C2CCC(=O)NC2=O)C3)C1 (stereo not shown) [Compound 40, 1-methylpyrrolidin-3-yl N-{[2-(2,6-dioxopiperidin-3-yl)-3-oxo-2,3-dihydro-1H-isoindol-5-yl]methyl}carbamate] | ≤ 10 | 6.00 to 7.00 |
| O=C1CCC(N2Cc3ccc(CNC(=O)OCC4CCCCO4)cc3C2=O)C(=O)N1 (stereo not shown) [Compound 41, (oxan-2-yl)methyl N-{[2-(2,6-dioxopiperidin-3-yl)-3-oxo-2,3-dihydro-1H-isoindol-5-yl]methyl}carbamate] | 10 to 50 | 6.00 to 7.00 |
| O=C1CCC(N2Cc3ccc(CNC(=O)OCC4CCOC4)cc3C2=O)C(=O)N1 (stereo not shown) [Compound 43, (oxolan-3-yl)methyl N-{[2-(2,6-dioxopiperidin-3-yl)-3-oxo-2,3-dihydro-1H-isoindol-5-yl]methyl}carbamate] | 10 to 50 | ≥ 7.00 |
| O=C1CCC(N2Cc3ccc(CNC(=O)OCC4CC(F)(F)C4)cc3C2=O)C(=O)N1 (stereo not shown) [Compound 46, (3,3-difluorocyclobutyl)methyl N-{[2-(2,6-dioxopiperidin-3-yl)-3-oxo-2,3-dihydro-1H-isoindol-5-yl]methyl}carbamate] | 10 to 50 | ≥ 7.00 |
